Results taken from patent publication US10470991B2, “(R)-N-(adamantyl-2-yl)pyrrolidine-2-carboxamide derivatives for cosmetic use” (DSM IP ASSETS B.V., priority 2015, dated 2019).
Counter-ions that a name gives are not always drawn.

Tests used:
11β-HSD1 [1] = target: T1, 11β-HSD1 (Homo sapiens, UniProt P28845); test: Inhibition of 11-beta-hydroxysteroid dehydrogenase type 1, activity assay in cell lysates (HEK-293 HHH7 clone, radiolabeled cortisone, TLC); type: biochemical; set-up: expressed in transfected cells; host or cells: HEK-293 (HHH7 clone), used as cell lysate; conditions: inhibitor 300 nM, 10 min 37° C.
Experimental: The cells were then washed with phosphate-buffered saline, and centrifuged for 4 min at 150×g. After removal of the supernatants, cell pellets were snap frozen on dry ice and stored at −80° C. until further use.
Cell lysates were incubated for 10 min at 37° C. in TS2 buffer (100 mM NaCl, 1 mM EGTA, 1 mM EDTA, 1 mM MgCl2, 250 mM sucrose, 20 mM Tris-HCl, pH 7.4) in a final volume of 22.2 μL containing either solvent (0.1% DMSO) or the inhibitor at the respective concentration as indicated in table 3-1.
Reactions were stopped after 10 min by adding an excess of unlabeled cortisone and cortisol (1:1, 2 mM, in methanol). The steroids were separated by TLC, using methanol-chloroform (1:9) as solvent, followed by scintillation counting and calculation of substrate concentration.

11β-HSD1 [2] = target: T1, 11β-HSD1; test: Human keratinocytes assay: 11β-HSD1 activity (cortisol level in supernatant after cortisone treatment); type: cell-based; set-up: Primary human skin keratinocytes obtained from CellNTec advanced Cell Systems; host or cells: primary human skin keratinocytes; conditions: 1000 nM cortisone, 48 h, primary human keratinocytes
Experimental: Cell Culture: Primary human skin keratinocytes obtained from CellNTec advanced Cell Systems were maintained in CnT-PR medium at 37° C. in a humidified 5% CO2-air atmosphere. Cells were subcultured before reaching confluence.
Assessment of 11β-HSD1 Activity: Human primary keratinocytes were pre-cultured in complete culture media (CnT-PR, CellNTec) to 90% of confluence. Subsequently cells were washed twice with PBS-buffer to remove remaining corticosteroids and media were exchanged to custom made hydrocortisone-free media. 48 h later cell culture supernatant was collected and cortisol levels were assessed with the Cortisol Parameter Assay Kit (R&D Systems) following the instructions of the protocol and using a Multiskan Ascent plate reader (Labsystems).
Calculation: % remaining 11β-HSD1 activity=(cortisol-level with inhibitor/cortisol-level without inhibitor)*100%

[3] = test system: Human skin from abdominal plastic surgery; test: Total dermal collagen after cortisone and cortisone/inhibitor treatment (human skin samples in culture, Picrosirius Red staining); type: cell-based; conditions: for Dermal collagen (score, untreated sample set to 100%): topical daily
Experimental: Human skin from abdominal plastic surgery was used. The skin samples were cut in pieces of ˜8×3 mm (Ø×thickness) and cultured up to day 6 in an air-liquid interface in a perforated ring of stainless steel in contact with a culture medium (modified Williams'E medium), while renewing the culture medium on day 3. Six skin specimens were used for each test sample. Each test sample (4 μl) was applied topically on top of each piece after cleaning of the surface with a cotton pad, which was subsequently covered with a 6 Ø mm delivery membrane, this procedure was repeated daily. After 6 days skin sections were stained with Picrosirius Red histochemical staining, that dyes collagen fibers in purple-red. The papillary dermis was selected for the analysis. The different colors of the pictures were separated by using a deconvolution matrix. After deconvolution only pink-reddish images are used. Within these images the evaluation of dermal collagen was performed by estimating both color intensity and distribution with IMAGE J (NIH) analysis software. Two slides of each skin sample were processed by image acquisition and related analysis (i.e. 12 images for each treatment).

T1 sequence (P28845 whole entry): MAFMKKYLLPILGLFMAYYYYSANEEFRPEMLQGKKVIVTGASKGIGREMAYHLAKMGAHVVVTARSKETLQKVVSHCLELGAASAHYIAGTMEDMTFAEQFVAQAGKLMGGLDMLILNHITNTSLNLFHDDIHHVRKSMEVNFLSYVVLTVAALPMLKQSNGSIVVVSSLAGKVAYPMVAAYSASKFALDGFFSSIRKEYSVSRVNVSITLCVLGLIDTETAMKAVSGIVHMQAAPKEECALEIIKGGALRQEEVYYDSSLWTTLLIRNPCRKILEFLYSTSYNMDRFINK

Q: For `CC(=O)N[C@@H](Cc1ccc(F)cc1)C(=O)N1CCC[C@@H]1C(=O)NC1C2CC3CC(C2)CC1C3` (stereo partly drawn) [(I-h), (R)-1-((S)-2-acetamido-3-(4-fluorophenyl)propanoyl)-N-(adamantan-2-yl)-pyrrolidine-2-carboxamide], which “11β-HSD1 Remaining activity [% of control]” value (11β-HSD1 [1]) is on record?
A: The value was 37 % of control.

Q: And the “remaining 11β-HSD1 activity” value (11β-HSD1 [2]; 3.16 nM inhibitor)?
A: Its value is 100%.

Q: And the “remaining 11β-HSD1 activity” value (11β-HSD1 [2]; 10.00 nM inhibitor)?
A: The value was 106%.

Q: What about the “remaining 11β-HSD1 activity” value (11β-HSD1 [2]; 31.62 nM inhibitor) of the same compound?
A: Its value is 89%.

Q: And the “remaining 11β-HSD1 activity” value (11β-HSD1 [2]; 100.00 nM inhibitor)?
A: Its value is 78%.

Q: What about the “remaining 11β-HSD1 activity” value (11β-HSD1 [2]; 316.20 nM inhibitor) of the same compound?
A: Its value is 52%.

Q: What about the “remaining 11β-HSD1 activity” value (11β-HSD1 [2]; 1000.00 nM inhibitor) of the same compound?
A: The value was 25%.

Q: `CCOc1ccc(C[C@H](N)C(=O)N2CCC[C@@H]2C(=O)NC2C3CC4CC(C3)CC2C4)cc1` (stereo partly drawn) [(I-k), (R)-N-(adamantan-2-yl)-1-((S)-2-amino-3-(4-ethoxyphenyl)propanoyl)pyrrolidine-2-carboxamide trifluoroacetate] was tested. Which “11β-HSD1 Remaining activity [% of control]” value (11β-HSD1 [1]) did it give?
A: Its value is 41 % of control.

Q: What about the “remaining 11β-HSD1 activity” value (11β-HSD1 [2]; 3.16 nM inhibitor) of the same compound?
A: The value was 95%.

Q: And the “remaining 11β-HSD1 activity” value (11β-HSD1 [2]; 10.00 nM inhibitor)?
A: Its value is 100%.

Q: What about the “remaining 11β-HSD1 activity” value (11β-HSD1 [2]; 31.62 nM inhibitor) of the same compound?
A: Its value is 89%.

Q: What about the “remaining 11β-HSD1 activity” value (11β-HSD1 [2]; 100.00 nM inhibitor) of the same compound?
A: The value was 80%.

Q: And the “remaining 11β-HSD1 activity” value (11β-HSD1 [2]; 316.20 nM inhibitor)?
A: Its value is 58%.

Q: And the “remaining 11β-HSD1 activity” value (11β-HSD1 [2]; 1000.00 nM inhibitor)?
A: Its value is 36%.

Q: Which results are given for `CC(=O)N[C@@H](Cc1ccc(C#N)cc1)C(=O)N1CCC[C@@H]1C(=O)NC1C2CC3CC(C2)CC1C3` (stereo partly drawn) [(I-l), (R)-1-((S)-2-acetamido-3-(4-cyanophenyl)-propanoyl)-N-(adamantan-2-yl)pyrrolidine-2-carboxamide]?
A: Increase versus cortisone (#2) ([3]; 10 μM in DMSO, day 6): +4%; Dermal collagen (score, untreated sample set to 100%) ([3]; 10 μM in DMSO, day 6, cortisone/inhibitor treatment): 80%; Increase versus cortisone (#2) ([3]; 100 μM in DMSO, day 6): +17%; Dermal collagen (score, untreated sample set to 100%) ([3]; 100 μM in DMSO, day 6, cortisone/inhibitor treatment): 90%; Increase versus cortisone (#2) ([3]; 200 μM in DMSO, day 6): +24%; Dermal collagen (score, untreated sample set to 100%) ([3]; 200 μM in DMSO, day 6, cortisone/inhibitor treatment): 96%; 11β-HSD1 Remaining activity [% of control] (11β-HSD1 [1]): 24 % of control; remaining 11β-HSD1 activity (11β-HSD1 [2]; 3.16 nM inhibitor): 94%; remaining 11β-HSD1 activity (11β-HSD1 [2]; 10.00 nM inhibitor): 92%; remaining 11β-HSD1 activity (11β-HSD1 [2]; 31.62 nM inhibitor): 76%; remaining 11β-HSD1 activity (11β-HSD1 [2]; 100.00 nM inhibitor): 57%; remaining 11β-HSD1 activity (11β-HSD1 [2]; 316.20 nM inhibitor): 28%; remaining 11β-HSD1 activity (11β-HSD1 [2]; 1000.00 nM inhibitor): 12%

Q: `C[C@H](N)C(=O)NCC(=O)NCCN1CCC[C@@H]1C(=O)NC1C2CC3CC(C2)CC1C3` (stereo partly drawn) [(I-o), (R)-N-(adamantan-2-yl)-1-(2-(2-((S)-2-aminopropanamido)acetamido)ethyl)pyrrolidine-2-carboxamide bistrifluoroacetate] was tested. Which “11β-HSD1 Remaining activity [% of control]” value (11β-HSD1 [1]) did it give?
A: Its value is 43 % of control.

Q: How did the “11β-HSD1 Remaining activity [% of control]” value (11β-HSD1 [1]) turn out when `C[C@H](NC(=O)CN)C(=O)NCCN1CCC[C@@H]1C(=O)NC1C2CC3CC(C2)CC1C3` (stereo partly drawn) [(I-p), (R)-N-(adamantan-2-yl)-1-(2-((S)-2-(2-aminoacetamido)propanamido)ethyl)pyrrolidine-2-carboxamide bistrifluoroacetate] was run?
A: The value was 57 % of control.

Q: How did the “11β-HSD1 Remaining activity [% of control]” value (11β-HSD1 [1]) turn out when `NCC(=O)N[C@@H](Cc1c[nH]c2ccccc12)C(=O)N1CCC[C@@H]1C(=O)NC1C2CC3CC(C2)CC1C3` (stereo partly drawn) [(I-q), (R)-N-(adamantan-2-yl)-1-(glycyl-L-tryptophyl)pyrrolidine-2-carboxamide trifluoroacetate] was run?
A: The value was 69 % of control.

Q: `C[C@]12CCC(=O)C=C1CC[C@@H]1[C@@H]2C(=O)C[C@@]2(C)[C@H]1CC[C@]2(O)C(=O)CO` [cortisone, reference compound] was tested. Which “Dermal collagen (score, untreated sample set to 100%)” value ([3]; cortisone 0.1 μM in DMSO alone, day 6, positive control for collagen inhibition) did it give?
A: The value was 77%.
